Assay results reported in publication PMC6384781, “Design, Synthesis, Docking Studies and Monoamine Oxidase Inhibition of a Small Library of 1-acetyl- and 1-thiocarbamoyl-3,5-diphenyl-4,5-dihydro-(1H)-pyrazoles” (Molecules, 2019).

How the values were obtained:
hMAO-B = target: T1, hMAO-B (Homo sapiens, UniProt P27338); assay: hMAO-B inhibition, Amplex Red fluorometric assay with kynuramine substrate; type: biochemical; settings: recombinant hMAO-B, kynuramine 50 µM, mean ± SD of triplicate, max tested 100 µM
T1 construct: purchased Sigma-Aldrich; host or cells: insect cells (microsomes)
T1 sequence (P27338 1-520): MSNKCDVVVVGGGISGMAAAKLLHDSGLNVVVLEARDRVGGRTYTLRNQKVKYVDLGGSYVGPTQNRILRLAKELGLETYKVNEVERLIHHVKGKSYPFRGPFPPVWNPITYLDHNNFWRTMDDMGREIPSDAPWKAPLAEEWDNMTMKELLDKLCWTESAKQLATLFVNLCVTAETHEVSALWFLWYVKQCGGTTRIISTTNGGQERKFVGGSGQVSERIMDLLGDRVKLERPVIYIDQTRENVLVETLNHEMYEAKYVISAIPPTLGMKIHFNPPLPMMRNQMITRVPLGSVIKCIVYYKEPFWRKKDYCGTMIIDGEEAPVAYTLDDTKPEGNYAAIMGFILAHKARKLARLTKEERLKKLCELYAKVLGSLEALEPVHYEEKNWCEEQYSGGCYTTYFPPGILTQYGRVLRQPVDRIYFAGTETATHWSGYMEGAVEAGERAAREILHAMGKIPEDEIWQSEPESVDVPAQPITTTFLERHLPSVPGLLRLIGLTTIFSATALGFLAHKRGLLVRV
Method: (§1) The synthesized compounds P1–P18 were evaluated as hMAO inhibitors using the recombinant hMAOs as enzyme sources and kynuramine as substrate. A fluorometric method based on the Amplex® Red reagent (λex = 560 nm; λem = 590 nm) was used to measure hMAO activity. In this horseradish peroxidase-linked assay, Amplex® Red reacts with hydrogen peroxide that is produced by the MAO catalytic cycle to yield a fluorescent product, resorufin [28]. By thus recording the MAO-catalyzed formation of hydrogen peroxide in the presence of different concentrations of a test inhibitor, sigmoidal plots of enzyme activity versus the logarithm of inhibitor concentration were constructed from which IC50 values were estimated (GraphPad Prism 5). All IC50 values were measured in triplicate and are expressed as the mean ± standard deviation (SD). The inhibitory activities of compounds P1–P18 are summarized in Table 1 along with selectivity index (SI) values which are the ratio of IC50(hMAO-A)/IC50(hMAO-B). SI < 1 indicates selectivity for MAO-A, whereas SI > 1 indicates selectivity for the MAO-B isoform.
(§2) Microsomes from insect cells expressing recombinant hMAO-A or hMAO-B (5 mg protein/mL) served as enzyme sources, and were pre-aliquoted and stored at −70 °C. All enzymatic reactions were carried out to a final volume of 200 µL in black 96-well microtiter plates (Corning). Potassium phosphate buffer (100 mM, pH 7.4, made isotonic with KCl) served as reaction solvent. The reactions contained kynuramine (50 µM), various concentrations of the test inhibitor (0.003–100 μM), horseradish peroxidase (1 unit/mL) and Amplex® Red (200 µM). Stock solutions of the test inhibitors were prepared in DMSO and added to the reactions to yield a final concentration of 4% (v/v) DMSO. The reactions were initiated with the addition of hMAO-A (0.0075 mg protein/mL) or hMAO-B (0.015 mg protein/mL), and incubated at 37 °C for 20 min in a convection oven. At endpoint, the reactions were terminated with the addition of 10 μL pargyline (20 mM) and 10 μL (R)-deprenyl (5 mM) for hMAO-A and hMAO-B, respectively. The concentrations of resorufin in the reactions were determined by fluorescence spectrophotometry (λex = 560 nm, λem = 590 nm). Resorufin was quantitated with a linear calibration curve, which was constructed from standard solutions containing hydrogen peroxide (0.05–1.6 µM). Each standard was prepared to a final volume of 200 μL in potassium phosphate buffer and also contained horseradish peroxidase (1 unit/mL), Amplex® Red (200 µM), 4% DMSO as co-solvent, 10 μL pargyline (20 mM) for hMAO-A and 10 μL (R)-deprenyl (5 mM) for hMAO-B. The IC50 values were determined by constructing sigmoidal curves of MAO catalytic activity versus the logarithm of inhibitor concentration. For this purpose, the one site competition model incorporated into the Prism 5 software package (GraphPad, San Diego, CA, USA) was used. All experiments were carried out in triplicate and the IC50 values are expressed as mean ± standard deviation (SD).

hMAO-A = target: T2, hMAO-A (Homo sapiens, UniProt P21397); assay: hMAO-A inhibition, Amplex Red fluorometric assay with kynuramine substrate; type: biochemical; settings: recombinant hMAO-A, kynuramine 50 µM, mean ± SD of triplicate, max tested 100 µM
T2 construct: purchased Sigma-Aldrich; host or cells: insect cells (microsomes)
T2 sequence (P21397 1-527): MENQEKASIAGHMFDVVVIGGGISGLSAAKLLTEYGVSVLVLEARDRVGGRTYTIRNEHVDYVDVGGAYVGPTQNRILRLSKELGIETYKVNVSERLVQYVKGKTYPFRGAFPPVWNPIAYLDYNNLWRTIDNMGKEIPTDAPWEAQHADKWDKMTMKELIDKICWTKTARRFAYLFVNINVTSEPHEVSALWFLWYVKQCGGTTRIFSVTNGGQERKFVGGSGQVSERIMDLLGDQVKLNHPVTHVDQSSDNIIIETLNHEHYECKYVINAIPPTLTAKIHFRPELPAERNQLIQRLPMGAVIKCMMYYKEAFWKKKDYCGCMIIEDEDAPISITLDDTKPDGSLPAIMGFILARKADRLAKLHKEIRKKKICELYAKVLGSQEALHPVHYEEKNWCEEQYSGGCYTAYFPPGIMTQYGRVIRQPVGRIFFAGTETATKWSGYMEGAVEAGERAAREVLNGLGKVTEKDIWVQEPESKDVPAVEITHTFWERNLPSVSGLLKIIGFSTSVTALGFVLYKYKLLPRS
Method: as §1, §2

- IC50 (hMAO-B): > 100 µM
- IC50 hMAO-B (hMAO-B): devoid of inhibition activity
- melting point: 78 to 80 °C
- IC50 (hMAO-A): > 100 µM
- IC50 hMAO-A (hMAO-A): devoid of inhibition activity
Structure (SMILES): CC(=O)N1N=C(c2ccc(OCC=C(C)C)cc2)CC1c1cccc2ccccc12 (centres unmarked) [Compound P18, 1-(3-(4-((3-methylbut-2-en-1-yl)oxy)phenyl)-5-(naphthalen-1-yl)-4,5-dihydro-1H-pyrazol-1-yl)ethan-1-one]
